SMILES strings stand for the structures. Some results are limits rather than exact numbers.

One assay has as its system MDA-MB-231. Nature of the assay: Anticancer activity against human MDA-MB-231 cells assessed as inhibition of cell growth at 10 uM measured by SRB method. The assay is classed as functional. For orientation: In SRB staining, fixed cells bind dye roughly in proportion to their protein.
The next assay deals with NCI-H1975. Nature of the assay: Anticancer activity against human NCI-H1975 cells assessed as inhibition of cell growth at 10 uM measured by SRB method. The assay is classed as functional.
Assay [1] has as its system HCC1806. The assay is described as follows: Anticancer activity against human HCC1806 cells assessed as inhibition of cell growth at 10 uM measured by SRB method. It counts as functional.
A further assay concerns HCT-116. Nature of the assay: Anticancer activity against human HCT-116 cells assessed as inhibition of cell proliferation. It counts as functional, cell-based.
A further assay has as its system HeLa. Nature of the assay: Anticancer activity against human HeLa cells assessed as inhibition of cell proliferation. The assay is classed as functional, cell-based.
A further assay has as its system A549. The assay is described as follows: Anticancer activity against human A549 cells assessed as inhibition of cell proliferation. The assay is classed as functional, cell-based.
The subject of assay [2] is HCC1806. Nature of the assay: Anticancer activity against human HCC1806 cells assessed as inhibition of cell proliferation. It counts as functional, cell-based.

As a reminder, the inhibition is the relative decrease from the control value, in per cent. Consider `CN(C)c1ccc(C2CC(c3ccc(-n4cncn4)cc3)=NN2)cc1` (configuration not stated), for which the inhibition at 10 µM is 7% in the assay on MDA-MB-231, -3.3% in the assay with NCI-H1975 and 6.8% with HCC1806 [1].
Take `CN(C)c1ccc(C2CC(c3ccc(-n4ccnc4)cc3)=NN2S(=O)(=O)c2ccc(C#N)cc2)cc1` (configuration not stated): the inhibition at 10 µM was 7.1% in the assay with MDA-MB-231, 0.7% in the assay with NCI-H1975 and 4.7% in the assay with HCC1806 [1].
With `CN1CCN(c2ccc(C3=NNC(c4ccc(N(C)C)cc4)C3)cc2)CC1` (configuration not stated), the figures for the inhibition at 10 µM with MDA-MB-231, in the assay on NCI-H1975 and in the assay with HCC1806 [1] were 11.4%, 2.4% and 31.2%, respectively.
As to `CN(C)c1ccc(C2CC(c3ccc(-n4cncn4)cc3)=NN2S(C)(=O)=O)cc1` (configuration not stated), the inhibition at 10 µM in the assay on MDA-MB-231 is 7.8%; in the assay with NCI-H1975, -3.1%; in the assay on HCC1806 [1], 10.8%.
Consider `Cc1ccc(S(=O)(=O)N2N=C(c3ccc(-n4ccnc4)cc3)CC2c2ccc(N(C)C)cc2)cc1` (configuration not stated), for which the figures for the inhibition at 10 µM in the assay with MDA-MB-231, in the assay on NCI-H1975 and in the assay with HCC1806 [1] were 50.8%, 50.5% and 66%, respectively.
On the same counts, the results for `CN1CCN(c2ccc(C3=NN(C(=O)Cc4ccccc4)C(c4ccc(N(C)C)cc4)C3)cc2)CC1` (configuration not stated) are 1.9%, -2.8% and 1%.
For `COC(=O)CC(=O)N1N=C(c2ccc(N3CCN(C)CC3)cc2)CC1c1ccc(N(C)C)cc1` (configuration not stated), the inhibition at 10 µM is -0.4% in the assay on MDA-MB-231, -2.2% with NCI-H1975 and -8.3% in the assay with HCC1806 [1].
Turning to `CC(=O)N1N=C(c2ccc(N3CCN(C)CC3)cc2)CC1c1ccc(N(C)C)cc1` (configuration not stated), the inhibition at 10 µM in the assay with MDA-MB-231 is -1%; with NCI-H1975 it was -1.9%; in the assay on HCC1806 [1], -0.8%.
Take `COC(=O)CC(=O)N1N=C(c2ccc(-n3cncn3)cc2)CC1c1ccc(N(C)C)cc1` (configuration not stated): the inhibition at 10 µM was 6.8% in the assay with MDA-MB-231, 1.5% in the assay with NCI-H1975 and -7.8% in the assay with HCC1806 [1].
On the same counts, the results for `COC(=O)CC(=O)N1N=C(c2ccc(-n3ccnc3)cc2)CC1c1ccc(N(C)C)cc1` (configuration not stated) are 2.3%, -0.1% and 2.1%.
On the same counts, the results for `C=C(C)C(=O)N1N=C(c2ccc(-n3ccnc3)cc2)CC1c1ccc(N(C)C)cc1` (configuration not stated) are 4.3%, -3.7% and 1.6%.
The matching figures for `CN(C)c1ccc(C2CC(c3ccc(-n4ccnc4)cc3)=NN2)cc1` (configuration not stated): 7.6%, 0.1% and -20.9%.
Regarding `CN(C)c1ccc(C2CC(c3ccc(-n4ccnc4)cc3)=NN2C(=O)CCCl)cc1` (configuration not stated), the inhibition at 10 µM in the assay on MDA-MB-231 was 2.1%; in the assay with NCI-H1975 it was -2.5%; with HCC1806 [1], -5.2%.
The matching figures for `CN(C)c1ccc(C2CC(c3ccc(-n4cncn4)cc3)=NN2C(=O)c2ccc(C(F)(F)F)cc2)cc1` (configuration not stated): 16.7%, 11.5% and 7%.
Turning to `CN(C)c1ccc(C2CC(c3ccc(-n4cncn4)cc3)=NN2S(=O)(=O)c2ccc(Br)cc2)cc1` (configuration not stated), the inhibition at 10 µM is 10.4% in the assay on MDA-MB-231, -0.6% with NCI-H1975 and 26.3% in the assay on HCC1806 [1].
For the compound `CN(C)c1ccc(C2CC(c3ccc(-n4ccnc4)cc3)=NN2C(=O)c2ccc(C(F)(F)F)cc2)cc1` (configuration not stated), the inhibition at 10 µM was 17.9% in the assay on MDA-MB-231, 15% with NCI-H1975 and 28% with HCC1806 [1].
With `CN(C)c1ccc(C2CC(c3ccc(-n4ccnc4)cc3)=NN2C(=O)c2cc(Cl)cc(Cl)c2)cc1` (configuration not stated), the inhibition at 10 µM is 48.8% with MDA-MB-231, 58.7% in the assay with NCI-H1975 and 44.5% with HCC1806 [1].
For the compound `CN(C)c1ccc(C2CC(c3ccc(-n4cncn4)cc3)=NN2C(=O)c2ccc(F)cc2)cc1` (configuration not stated), the inhibition at 10 µM is 12.5% in the assay with MDA-MB-231, -1.1% in the assay with NCI-H1975 and 15.6% with HCC1806 [1].
The term IC50 denotes the concentration needed to halve the response being measured. Regarding `CN1CCN(c2ccc(C3=NN(S(=O)(=O)c4ccc(F)cc4)C(c4ccc(N(C)C)cc4)C3)cc2)CC1` (configuration not stated), the results for the inhibition at 10 µM in the assay with MDA-MB-231, in the assay on NCI-H1975 and with HCC1806 [1] were 15.7%, 95.7% and 92.3%, respectively. Also, the IC50 in the assay with HCT-116 was more than 10 µM; in the assay with HeLa, more than 10 µM; in the assay with A549, 9.6 µM; in the assay with HCC1806 [2], 6.1 µM.
In the case of `CN1CCN(c2ccc(C3=NN(S(C)(=O)=O)C(c4ccc(N(C)C)cc4)C3)cc2)CC1` (configuration not stated), the inhibition at 10 µM is 0.6% in the assay on MDA-MB-231, -1.3% with NCI-H1975 and -18.5% in the assay on HCC1806 [1].
Turning to `CN(C)c1ccc(C2CC(c3ccc(-n4ccnc4)cc3)=NN2S(=O)(=O)c2ccc([N+](=O)[O-])cc2)cc1` (configuration not stated), the inhibition at 10 µM in the assay with MDA-MB-231 was determined as 41.5%; with NCI-H1975, 53%; in the assay on HCC1806 [1], 46.6%.
For `CN1CCN(c2ccc(C3=NN(S(=O)(=O)c4ccc(OC(F)(F)F)cc4)C(c4ccc(N(C)C)cc4)C3)cc2)CC1` (configuration not stated), the inhibition at 10 µM in the assay with MDA-MB-231 came out at 10.6%; with NCI-H1975, 26.5%; with HCC1806 [1], 70.8%.
Regarding `CN1CCN(c2ccc(C3=NN(S(=O)(=O)c4ccc(C(F)(F)F)cc4)C(c4ccc(N(C)C)cc4)C3)cc2)CC1` (configuration not stated), the inhibition at 10 µM in the assay with MDA-MB-231 came out at 12.1%; in the assay with NCI-H1975 it was 18.9%; with HCC1806 [1], 27%.
Consider `CN(C)c1ccc(C2CC(c3ccc(-n4cncn4)cc3)=NN2C(=O)CCCl)cc1` (configuration not stated), for which the figures for the inhibition at 10 µM with MDA-MB-231, in the assay on NCI-H1975 and with HCC1806 [1] were 3.7%, -0.7% and -3.4%, respectively.
On to `CN(C)c1ccc(C2CC(c3ccc(-n4ccnc4)cc3)=NN2S(C)(=O)=O)cc1` (configuration not stated), for which the inhibition at 10 µM is 12% in the assay on MDA-MB-231, -3.8% in the assay with NCI-H1975 and 11.3% in the assay on HCC1806 [1].
Regarding `CN1CCN(c2ccc(C3=NN(C(=O)c4ccc(F)cc4)C(c4ccc(N(C)C)cc4)C3)cc2)CC1` (configuration not stated), the results for the inhibition at 10 µM in the assay on MDA-MB-231, with NCI-H1975 and in the assay with HCC1806 [1] were 3.5%, 32.2% and 31.8%, respectively.
The matching figures for `CN(C)c1ccc(C2CC(c3ccc(-n4cncn4)cc3)=NN2S(=O)(=O)c2ccc(OC(F)(F)F)cc2)cc1` (configuration not stated): 18.5%, 11.1% and 25.2%.
On to `CN1CCN(c2ccc(C3=NN(C(=O)c4ccc(C(F)(F)F)cc4)C(c4ccc(N(C)C)cc4)C3)cc2)CC1` (configuration not stated), for which the inhibition at 10 µM was found to be 55.4% with MDA-MB-231, 93.2% in the assay on NCI-H1975 and 84.1% in the assay on HCC1806 [1]. The IC50 is more than 10 µM in the assay with HCT-116, more than 100 µM in the assay on HeLa, more than 10 µM in the assay with A549 and 5.4 µM in the assay on HCC1806 [2].
`CN(C)c1ccc(C2CC(c3ccc(-n4cncn4)cc3)=NN2C(=O)c2cc(Cl)cc(Cl)c2)cc1` (configuration not stated): the inhibition at 10 µM in the assay with MDA-MB-231 was 9.4%; with NCI-H1975 it was 8.4%; in the assay with HCC1806 [1] it was 5.3%.
Take `CN(C)c1ccc(C2CC(c3ccc(-n4ccnc4)cc3)=NN2C(=O)Cc2ccccc2)cc1` (configuration not stated): the values for the inhibition at 10 µM in the assay with MDA-MB-231, in the assay with NCI-H1975 and in the assay on HCC1806 [1] were 7.2%, -5.5% and 2%, respectively.
For `CC(=O)N1N=C(c2ccc(-n3cncn3)cc2)CC1c1ccc(N(C)C)cc1` (configuration not stated), the inhibition at 10 µM with MDA-MB-231 is 7.4%; with NCI-H1975, -0.3%; in the assay with HCC1806 [1] it was 11%.
On to `CN1CCN(c2ccc(C3=NN(C(=O)CCCl)C(c4ccc(N(C)C)cc4)C3)cc2)CC1` (configuration not stated), for which the inhibition at 10 µM in the assay on MDA-MB-231 is 2.4%; in the assay on NCI-H1975 it was -0.2%; in the assay on HCC1806 [1], 1.7%.
Consider `CN(C)c1ccc(C2CC(c3ccc(-n4ccnc4)cc3)=NN2C(=O)c2ccc(F)cc2)cc1` (configuration not stated), for which the inhibition at 10 µM with MDA-MB-231 is 9.4%; in the assay with NCI-H1975, -3.5%; in the assay with HCC1806 [1] it was 7.1%.
Regarding `CN(C)c1ccc(C2CC(c3ccc(-n4cncn4)cc3)=NN2S(=O)(=O)c2ccc(C(F)(F)F)cc2)cc1` (configuration not stated), the inhibition at 10 µM stood at 15.3% with MDA-MB-231, 5.5% with NCI-H1975 and 37% in the assay on HCC1806 [1].
Take `CN1CCN(c2ccc(C3=NN(S(=O)(=O)C4CC4)C(c4ccc(N(C)C)cc4)C3)cc2)CC1` (configuration not stated): the inhibition at 10 µM with MDA-MB-231 is 3.7%; in the assay with NCI-H1975 it was 0.2%; in the assay with HCC1806 [1] it was 4.7%.
Take `CC(=O)N1N=C(c2ccc(-n3ccnc3)cc2)CC1c1ccc(N(C)C)cc1` (configuration not stated): the values for the inhibition at 10 µM in the assay with MDA-MB-231, in the assay on NCI-H1975 and in the assay on HCC1806 [1] were 5%, -2.1% and -9.7%, respectively.
For the compound `CN(C)c1ccc(C2CC(c3ccc(-n4cncn4)cc3)=NN2S(=O)(=O)c2ccc(C#N)cc2)cc1` (configuration not stated), the inhibition at 10 µM in the assay with MDA-MB-231 was 32.8%; in the assay with NCI-H1975, 22.6%; in the assay on HCC1806 [1], 35.1%.
Regarding `Cc1ccc(C(=O)N2N=C(c3ccc(N4CCN(C)CC4)cc3)CC2c2ccc(N(C)C)cc2)cc1` (configuration not stated), the inhibition at 10 µM was -0.7% in the assay with MDA-MB-231, -0.4% with NCI-H1975 and -2.5% with HCC1806 [1].
The matching figures for `Cc1ccc(S(=O)(=O)N2N=C(c3ccc(-n4cncn4)cc3)CC2c2ccc(N(C)C)cc2)cc1` (configuration not stated): 20.7%, 20% and 27.7%.
On the same counts, the results for `CN(C)c1ccc(C2CC(c3ccc(-n4cncn4)cc3)=NN2C(=O)Cc2ccccc2)cc1` (configuration not stated) are 2.9%, -4% and -6.9%.
As for `Cc1ccc(S(=O)(=O)N2N=C(c3ccc(N4CCN(C)CC4)cc3)CC2c2ccc(N(C)C)cc2)cc1` (configuration not stated), the values for the inhibition at 10 µM in the assay with MDA-MB-231, in the assay on NCI-H1975 and in the assay on HCC1806 [1] were 10.7%, 38.1% and 32.2%, respectively.
Regarding `CN(C)c1ccc(C2CC(c3ccc(-n4cncn4)cc3)=NN2C(=O)/C=C/c2ccccc2)cc1` (configuration not stated), the values for the inhibition at 10 µM in the assay with MDA-MB-231, in the assay on NCI-H1975 and in the assay with HCC1806 [1] were 8.5%, -2.3% and -3.7%, respectively.
Consider `CN(C)c1ccc(C2CC(c3ccc(-n4cncn4)cc3)=NN2S(=O)(=O)c2ccc(F)cc2)cc1` (configuration not stated), for which the values for the inhibition at 10 µM in the assay on MDA-MB-231, with NCI-H1975 and with HCC1806 [1] were 12.1%, -0.5% and 24.1%, respectively.

Source of the values: ChEMBL document CHEMBL4808195, “Discovery of heterocyclic substituted dihydropyrazoles as potent anticancer agents” (Bioorg Med Chem Lett, 2021).
